pEC50: −log10 of the molar value. Values joined by “and” are separate entries in the source; they are usually repeats but may differ in a detail not shown here. Equal entries are not always repeated. Where two headings read alike, the source gives them in different places.
Legend:
[1] = test system: C. parvum; test: Egress, motility, reinvasion assay (PV ratio); conditions: compound at EC90; for Egress and Reinvasion Assay: Mean PV ratios (19.5h:6h), Average: average of replicates; for Egress and Reinvasion Assay: Mean PV ratios (19.5h:6h), Replicate 1a: single replicate 1; for Egress and Reinvasion Assay: Mean PV ratios (19.5h:6h), Replicate 2a: single replicate 2; for Egress and Reinvasion Assay: Mean PV ratios (19.5h:6h), Replicate 3a: single replicate 3; for Egress and Reinvasion Assay: Mean PV ratios (19.5h:6h), Replicate 4a: single replicate 4
Description: For quantification of parasitophorous vacuoles over time, HCT-8 cells were grown to greater than 90% confluence in 384-well plates and infected with 11,000 oocysts after triggering excystation.

[2] = test system: C. parvum; test: 48 h Cryptosporidium growth inhibition assay; assay type: cell-based, Cryptosporidium parvum; conditions: for 0 - 48 h V. villosa lectin (asexual): Mean % Inhibition (parasites): replicates 1-3 in separate columns; for EC90: compound added 3 h post-infection, read at 48 h
Description: As a first step in developing specific Cryptosporidium mode of action assays, we conducted a series of light microscopy time-lapse and transmission electron microscopy (TEM) time course experiments in order to precisely define C. parvum development within the HCT-8 cell culture system. […] This synchronicity was exploited by modifying a previously developed high-content microscopy assay. These assay modifications enabled the evaluation of several key events within the life cycle: host cell invasion, intracellular replication, host cell egress and establishment of new parasitophorous vacuoles, and sexual differentiation. […] Since the methods all used automated liquid handling, imaging, and image analysis, the assay methods all incorporated nuclear staining to monitor host cell numbers and enable recognition of HCT-8 cell monolayer damage, for example as an artifact from a malfunctioning plate washer or from unanticipated cytotoxicity of the compounds.
Human ileocecal adenocarcinoma (HCT-8) cells were purchased from ATCC (catalog# CCL-244) and cultured in ATCC modified RPMI-1640 medium (Gibco, catalog# A10491–01), supplemented with 10% heat-inactivated fetal bovine serum (Sigma-Aldrich, catalog# 12306C) and 120 U/mL penicillin and 120 μg/mL streptomycin (Gibco, catalog# 15140-122) (culture media). […] For all experiments, HCT-8 cells between passages 9 and 39 were used. C. parvum (Iowa isolate) oocysts were purchased from Bunchgrass Farm (Deary, ID), stored at 4 °C and used within 5 months of collection from an infected calf. To induce excystation, oocysts were first treated with 10 mM hydrochloric acid for 10 min at 37 °C, spun at 14,000×g for 4.5 min at room temperature, treated with 2 mM sodium taurocholate for 10 min at 16 °C, spun as before, and resuspended in culture media for infection.
A modification of a previously reported immunofluorescence assay was used to determine the EC50 and EC90 of compounds[13]. HCT-8 cells were grown to ≥ 90% confluence in 384-well plates (Corning, catalog# 353962) and infected with 5500 oocysts per well after they were induced for excystation as described above. Different concentrations of compounds were added 3 h post-infection and plates were incubated for another 45 h in a 5% CO2 incubator at 37 °C. Wells were then washed 3 times with PBS containing 111 mM D-galactose (PBS-D-gal), fixed with 4% paraformaldehyde (PFA) in PBS for 15 min at room temperature, permeabilized with 0.25% Triton X-100 for 10 min at 37 °C, washed 3 times with PBS with 0.1% Tween 20, and blocked with 4% bovine serum albumin (BSA) in PBS for 2 h at 37 °C or 4 °C overnight. Parasitophorous vacuoles were stained with 1.33 µg/mL of fluorescein-labeled Vicia villosa lectin (Vector Laboratories, catalog# FL-1231) diluted in 1% BSA in PBS with 0.1% Tween 20 for 1 h at 37 °C, followed by addition of Hoechst 33258 (AnaSpec, catalog# AS-83219) at 0.09 mM diluted in water for another 15 min at 37 °C. Wells were then washed 5 times with PBS containing 0.1% Tween 20. A Nikon Eclipse Ti2000 epifluorescence microscope with an automated stage was programmed using NIS-Elements Advanced Research software (Nikon, USA) to focus on the center of each well and take a 3 × 3 or 6 × 6 composite image using an EXi blue fluorescence microscopy camera (QImaging, Canada) with a 20 × objective (NA = 0.45). Nuclei and parasite images were separately exported as.tif files and analyzed using macros developed on the ImageJ platform (National Institutes of Health)[13].

[3] = test system: C. parvum DMC1 expression; test: Sexual differentiation assay (DMC1 expression); assay type: cell-based, Cryptosporidium parvum; conditions: for 48 - 72 h DMC1 (asexual to sexual conversion): Mean % DMC1 inhibition (normalized to host nuclei): replicates 1-3 in separate columns; for Asexual to sexual differentiation: Mean % DMC1 inhibition (normalized to host nuclei), Average: average of replicates; for Asexual to sexual differentiation: Mean % DMC1 inhibition (normalized to host nuclei), Replicate 1a: single replicate 1; for Asexual to sexual differentiation: Mean % DMC1 inhibition (normalized to host nuclei), Replicate 2a: single replicate 2; for Asexual to sexual differentiation: Mean % DMC1 inhibition (normalized to host nuclei), Replicate 3a: single replicate 3
Description: We utilized DMC1 as a marker of C. parvum sexual development, and used the anti-DMC1 monoclonal antibody to develop a moderate-throughput high-content microscopy assay for characterizing anticryptosporidial compounds (Fig. 6a). […] Therefore, in order to enable numerical comparison of the ability of compounds to block sexual development with moderate throughput, we adopted a strategy of reporting the percent inhibition of DMC1 expression by the previously determined EC90 of each compound in the standard asexual development assay (Fig. 6c and Supplementary Table 2).
Fig. 6 Assay to measure asexual-to-sexual-stage conversion. a Schematic of the experimental approach. […] For b and c the mean and SD combined from at least two biological replicates with four technical replicates per experiment are shown. […] At given time points post-infection, infected cells were washed 3 times with PBS containing 111 mM of D-galactose, fixed for 15 min at room temperature with 4% paraformaldehyde in PBS, and permeabilized with 0.25% triton X-100 in PBS for 10 min at 37 °C. Cells were then washed 3 times with PBS and blocked at least overnight at 4 °C with 1% BSA in PBS (blocking buffer). Cells were stained with monoclonal antibody (1H10G7), either neat culture supernatant or 12.8 µg/mL of purified IgG in blocking buffer for 1 h at 37 °C, followed by 2 washes with PBS. Cells were then co-stained with a 1:500 dilution (4 µg/mL) of Alexa Fluor 568 goat anti-mouse IgG (Invitrogen, catalog# A-11004) and 1.33 µg/mL fluorescein-labeled Vicia villosa lectin (Vector Laboratories, catalog# FL-1231) diluted in blocking buffer for 1 h at 37 °C. Stains were then removed and 0.09 mM Hoechst 33258 (AnaSpec, catalog# AS-83219) also diluted in blocking buffer was added for another 15 min at 37 °C, followed by 2 PBS washes and imaging on a Nikon Eclipse Ti2000 epifluorescence microscope run with NIS-Elements Advanced Research software (Nikon, USA) and equipped with an EXi blue fluorescent microscopy camera (QImaging, Canada). For enumerating parasites, tiled 2 × 2 images with 15% overlapping edges were taken using a 40 × dry objective (0.7 NA), and for finer details, Z stack images were acquired using a 60 × oil objective (1.4 NA). Lectin positive cells in focus were first counted, followed by DMC1.
For compound dose-response studies, the same assay was performed in 384-well plates and imaged using a 20 × dry objective (NA = 0.45). Tiled 4 × 4 to 6 × 6 images were taken. Images were analyzed using ImageJ software and the custom macro provided in Supplementary Method 2.

[4] = read-out: Regular 3 to 48 h assay in vitro EC90, C. parvum in HCT-8 cells
[5] = compound at asexual EC90, 48-72 h

## O=C(Nc1ccc(Cl)cc1)N1CCN(c2ccc3nncn3n2)CC1 [D-1]
[1]
  Egress and Reinvasion Assay: Mean PV ratios (19.5h:6h), Average: 1.86
  Egress and Reinvasion Assay: Mean PV ratios (19.5h:6h), Replicate 1a: 1.12
  Egress and Reinvasion Assay: Mean PV ratios (19.5h:6h), Replicate 2a: 1.70
  Egress and Reinvasion Assay: Mean PV ratios (19.5h:6h), Replicate 3a: 3.12
  Egress and Reinvasion Assay: Mean PV ratios (19.5h:6h), Replicate 4a: 1.50
[2]; D-1 at log conc (µM) 0.00
  0 - 48 h V. villosa lectin (asexual): Mean % Inhibition (parasites): -13.99% and -26.93% and 12.39%
[2]; D-1 at log conc (µM) 0.30
  0 - 48 h V. villosa lectin (asexual): Mean % Inhibition (parasites): 44.90% and 34.43% and 28.35%
[2]; D-1 at log conc (µM) 0.48
  0 - 48 h V. villosa lectin (asexual): Mean % Inhibition (parasites): 62.14% and 71.97% and 62.62%
[2]; D-1 at log conc (µM) 0.60
  0 - 48 h V. villosa lectin (asexual): Mean % Inhibition (parasites): 81.17% and 79.33% and 75.56%
[2]; D-1 at log conc (µM) 0.85
  0 - 48 h V. villosa lectin (asexual): Mean % Inhibition (parasites): 91.46% and 90.48% and 90.58%
[2]; D-1 at log conc (µM) 1.08
  0 - 48 h V. villosa lectin (asexual): Mean % Inhibition (parasites): 93.34% and 92.97% and 93.35%
[2]; D-1 at log conc (µM) 1.40
  0 - 48 h V. villosa lectin (asexual): Mean % Inhibition (parasites): 93.98% and 94.31% and 94.76%
[2]; D-1 at log conc (µM) -0.70
  0 - 48 h V. villosa lectin (asexual): Mean % Inhibition (parasites): -20.95% and -21.90% and -17.53%
[2]; D-1 at log conc (µM) -1.40
  0 - 48 h V. villosa lectin (asexual): Mean % Inhibition (parasites): -23.49% and -23.30% and -25.37%
[2]; read-out: 0 − 48 h V. villosa lectin (asexual): EC50, asexual growth assay, first 48 h, range in brackets
  pEC50: 5.68
[2]; [4]
  EC90: 5.1 µM
[3]; D-1 at log conc (µM) 0.16
  48 - 72 h DMC1 (asexual to sexual conversion): Mean % DMC1 inhibition (normalized to host nuclei): -9.83% and -22.30% and 31.77%
[3]; D-1 at log conc (µM) 0.46
  48 - 72 h DMC1 (asexual to sexual conversion): Mean % DMC1 inhibition (normalized to host nuclei): 54.19% and 44.15% and 54.54%
[3]; D-1 at log conc (µM) 0.58
  48 - 72 h DMC1 (asexual to sexual conversion): Mean % DMC1 inhibition (normalized to host nuclei): 71.57% and 53.72% and 69.21%
[3]; D-1 at log conc (µM) 0.71
  48 - 72 h DMC1 (asexual to sexual conversion): Mean % DMC1 inhibition (normalized to host nuclei): 84.32%
[3]; D-1 at log conc (µM) 1.18
  48 - 72 h DMC1 (asexual to sexual conversion): Mean % DMC1 inhibition (normalized to host nuclei): 94.93% and 94.90% and 95.67%
[3]; D-1 at log conc (µM) 1.66
  48 - 72 h DMC1 (asexual to sexual conversion): Mean % DMC1 inhibition (normalized to host nuclei): 95.75% and 98.23% and 93.36%
[3]; D-1 at log conc (µM) -0.14
  48 - 72 h DMC1 (asexual to sexual conversion): Mean % DMC1 inhibition (normalized to host nuclei): 2.15% and -53.03% and -30.95%
[3]; D-1 at log conc (µM) -0.62
  48 - 72 h DMC1 (asexual to sexual conversion): Mean % DMC1 inhibition (normalized to host nuclei): -16.25% and -49.91% and -40.61%
[3]; D-1 at log conc (µM) -1.10
  48 - 72 h DMC1 (asexual to sexual conversion): Mean % DMC1 inhibition (normalized to host nuclei): -18.85% and -40.36% and -14.22%
[3]; compound added at 48 h, read at 72 h, result in words
  activity in the DMC1 (sexual development) assay relative to asexual assay: equal potency before and after 48 h
[3]; [5]
  Asexual to sexual differentiation: Mean % DMC1 inhibition (normalized to host nuclei), Average: 83.01%
  Asexual to sexual differentiation: Mean % DMC1 inhibition (normalized to host nuclei), Replicate 1a: 87.55%
  Asexual to sexual differentiation: Mean % DMC1 inhibition (normalized to host nuclei), Replicate 2a: 90.87%
  Asexual to sexual differentiation: Mean % DMC1 inhibition (normalized to host nuclei), Replicate 3a: 72.73%
[3]; compound at asexual EC90, 48-72 h, single replicate 4
  Asexual to sexual differentiation: Mean % DMC1 inhibition (normalized to host nuclei), Replicate 4a: 66.31%
[3]; compound at asexual EC90, 48-72 h, single replicate 5
  Asexual to sexual differentiation: Mean % DMC1 inhibition (normalized to host nuclei), Replicate 5a: 89.27%
[3]; compound at asexual EC90, 48-72 h, single replicate 6
  Asexual to sexual differentiation: Mean % DMC1 inhibition (normalized to host nuclei), Replicate 6a: 91.32%
[3]; inhibition of DMC1 expression from 48 to 72 h, range in brackets, read-out: 48 − 72 h DMC1 (asexual to sexual conversion): EC50
  pEC50: 5.62

## O=C(Nc1ccc(Cl)c(Cl)c1)N1CCN(c2ccc3nncn3n2)CC1 [D-28]
[1]
  Egress and Reinvasion Assay: Mean PV ratios (19.5h:6h), Average: 1.28
  Egress and Reinvasion Assay: Mean PV ratios (19.5h:6h), Replicate 1a: 1.01
  Egress and Reinvasion Assay: Mean PV ratios (19.5h:6h), Replicate 2a: 1.19
  Egress and Reinvasion Assay: Mean PV ratios (19.5h:6h), Replicate 3a: 1.91
  Egress and Reinvasion Assay: Mean PV ratios (19.5h:6h), Replicate 4a: 1.01
[2]; [4]
  EC90: 1.5 µM
[3]; [5]
  Asexual to sexual differentiation: Mean % DMC1 inhibition (normalized to host nuclei), Average: 81.40%
  Asexual to sexual differentiation: Mean % DMC1 inhibition (normalized to host nuclei), Replicate 1a: 86.90%
  Asexual to sexual differentiation: Mean % DMC1 inhibition (normalized to host nuclei), Replicate 2a: 86.80%
  Asexual to sexual differentiation: Mean % DMC1 inhibition (normalized to host nuclei), Replicate 3a: 70.51%

## Cc1cc(/C=C/c2ccc3cc(N(C)C)ccc3[n+]2C)c(C)n1-c1ccccc1 [Pyrvinium pamoate]
[1]
  Egress and Reinvasion Assay: Mean PV ratios (19.5h:6h), Average: 0.61
  Egress and Reinvasion Assay: Mean PV ratios (19.5h:6h), Replicate 1a: 0.97
  Egress and Reinvasion Assay: Mean PV ratios (19.5h:6h), Replicate 2a: 0.85
  Egress and Reinvasion Assay: Mean PV ratios (19.5h:6h), Replicate 3a: 0.33
  Egress and Reinvasion Assay: Mean PV ratios (19.5h:6h), Replicate 4a: 0.30
[2]; Cryptosporidium parvum, HCT-8, read-out: Regular 3 to 48 h assay in vitro EC90, C. parvum in HCT-8 cells
  EC90: 3.21 µM
[3]; [5]
  Asexual to sexual differentiation: Mean % DMC1 inhibition (normalized to host nuclei), Average: 68.07%
  Asexual to sexual differentiation: Mean % DMC1 inhibition (normalized to host nuclei), Replicate 1a: 51.94%
  Asexual to sexual differentiation: Mean % DMC1 inhibition (normalized to host nuclei), Replicate 2a: 84.21%

Reference: PMC6478823, “A suite of phenotypic assays to ensure pipeline diversity when prioritizing drug-like Cryptosporidium growth inhibitors” (Nature Communications, 2019)
